Biological target: MAPK14;MAPK11;MAPK12 (human) (UniProt Q16539)
Assay: Inhibition of p38 Kinase Activity

| IC50 [nM] | SMILES |
| --- | --- |
| < 1000 | CCONC(=O)c1ccc(C)c(Nc2nc(NC)cc(N(C)CC(C)(C)C)n2)c1 |
| < 1000 | CONC(=O)c1ccc(C)c(Nc2nc(N(C)C)nc(N(C)CC(C)(C)C)n2)c1 |
| < 1000 | CNC(=O)c1ccc(C)c(Nc2nc(N[C@H]3CCNC3)nc(SCC(C)C)n2)c1 |
| < 10000 | CC(C)NC(=O)N1CCN(c2nc(NCC(C)c3ccccc3)nc(Nc3ccc4ncsc4c3)n2)CC1 (stereo unspecified) |
| < 10000 | COc1ccc(C(=O)N2CCN(c3nc(NCC(C)c4ccccc4)nc(Nc4ccc5ncsc5c4)n3)CC2)cc1 (stereo unspecified) |
| < 1000 | Cc1ccc(C(N)=O)cc1Nc1nc(N[C@H]2CCN(Cc3cccc(C#N)c3)C2)nc(N(C)CC(C)C)n1 |
| < 1000 | Cc1ccc(C(N)=O)cc1Nc1nc(N[C@H]2CCN(Cc3cccnc3)C2)nc(N(C)CC(C)C)n1 |
| < 10000 | CC(CCCCCCNc1nc(NCC(C)c2ccccc2)nc(Nc2ccc3ncoc3c2)n1)C(N)=O (stereo unspecified) |
| < 10000 | CC(C)c1nc(NCC(C)c2ccccc2)nc(Nc2ccc3ncsc3c2)n1 (stereo unspecified) |
| < 10000 | CC(CNc1nc(Nc2ccc3ncsc3c2)nc(N2CCCCC2)n1)c1ccccc1 (stereo unspecified) |
| < 1000 | Cc1ccc(C(N)=O)cc1Nc1nc(N[C@H]2CCN(Cc3cccc(O)c3)C2)nc(N(C)CC(C)C)n1 |
| < 30000 | CONC(=O)c1ccc(C)c(Oc2nc(N(C)CC(C)(C)C)nc(N3CCCN(C)CC3)n2)c1 |
| < 1000 | Cc1ccc(C(N)=O)cc1Nc1nc(NC2CCN(Cc3ccccc3)C2)nc(N(C)CC(C)(C)C)n1 (stereo unspecified) |
| < 1000 | CCC(C)(C)c1nc(Nc2cc(C(N)=O)ccc2C)nc(N[C@H]2CCNC2)n1 |
| < 1000 | Cc1ccc(C(=O)Nc2ccccn2)cc1Nc1nc(N[C@H]2CCNC2)nc(N(C)CC(C)C)n1 |
| < 1000 | CNC(=O)c1ccc(C)c(Nc2nc(NC3CNC3)nc(N(C)CC(C)(C)C)n2)c1 |
| < 1000 | COc1ccccc1CN1CC[C@@H](Nc2nc(Nc3cc(C(N)=O)ccc3C)nc(N(C)CC(C)C)n2)C1 |
| < 1000 | Cc1ccc(C(N)=O)cc1Nc1nc(N[C@H]2CCN(Cc3ccccc3O)C2)nc(N(C)CC(C)C)n1 |
| < 1000 | CCONC(=O)c1ccc(C)c(Nc2nc(N)nc(N(C)CC(C)(C)C)n2)c1 |
| < 1000 | Cc1ccc(C(N)=O)cc1Nc1nc(N[C@H]2CCN(C(C)c3cccnc3)C2)nc(N(C)CC(C)C)n1 (stereo partly specified) |
| < 10000 | Cc1ccccc1NC(=S)N1CCN(c2nc(NCC(C)c3ccccc3)nc(Nc3ccc4ncsc4c3)n2)CC1 (stereo unspecified) |
| < 1000 | Cc1ccc(C(N)=O)cc1Nc1nc(NCC2CCCCC2)nc(N[C@@H]2CCNC2)n1 |
| < 1000 | CCN1C[C@@H](Nc2nc(Nc3cc(C(N)=O)ccc3C)nc(N(C)CC(C)(C)C)n2)C[C@H]1C |
| < 10000 | c1ccc(C2CCCN(c3nc(Nc4ccc5ncsc5c4)nc(N4CCNCC4)n3)C2)cc1 (stereo unspecified) |
| < 1000 | CONC(=O)c1ccc(C)c(Nc2nc(NCCN3CCCC3)nc(N(C)CC(C)(C)C)n2)c1 |
| < 1000 | CONC(=O)c1ccc(C)c(Nc2nc(N(C)CC(C)(C)C)nc(N3CCNCC3)n2)c1 |
